Measured values taken from publication PMC11589570, “Critical assessment of LC3/GABARAP ligands used for degrader development and ligandability of LC3/GABARAP binding pockets” (Nature Communications, 2024).
Where two headings read alike, the source gives them in different places.

Target: GABARAPL2 (Homo sapiens, UniProt P60520)
Details: GABARAPL2:ligand molar ratio 1:2

Sequence of GABARAPL2 (P60520 whole entry): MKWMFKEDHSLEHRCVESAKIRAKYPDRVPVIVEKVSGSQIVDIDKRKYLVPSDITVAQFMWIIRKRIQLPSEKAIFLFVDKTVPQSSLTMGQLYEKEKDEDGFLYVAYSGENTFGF

O=C1Nc2ccc(Br)cc2C1=Cc1cc(O)c(O)c(Br)c1 [compound 1]
CSP (residue A19): 0.023 ppm
CSP (residue A23): 0.017 ppm
CSP (residue A58): 0.006 ppm
CSP (residue A75): 0.00152 ppm
CSP (residue A108): 0.001 ppm
CSP (residue C15): 0.010 ppm
CSP (residue D8): 0.011 ppm
CSP (residue D43): 0.002 ppm
CSP (residue D54): 0.011 ppm
CSP (residue D81): 0.00158 ppm
CSP (residue D100): 0.002 ppm
CSP (residue D102): 0.015 ppm
CSP (residue E7): 0.00272 ppm
CSP (residue E12): 0.006 ppm
CSP (residue E17): 0.011 ppm
CSP (residue E34): 0.012 ppm
CSP (residue E96): 0.00425 ppm
CSP (residue E98): 0.005 ppm
CSP (residue E101): 0.005 ppm
CSP (residue F5, estimated): 0.010 ppm
CSP (residue F60): 0.006 ppm
CSP (residue F77): 0.00374 ppm
CSP (residue F104): 0.019 ppm
CSP (residue F115): 0.011 ppm
CSP (residue G38): 0.024 ppm
CSP (residue G103): 0.009 ppm
CSP (residue G111): 0.00641 ppm
CSP (residue H9): 0.012 ppm
CSP (residue H13): 0.004 ppm
CSP (residue I21): 0.013 ppm
CSP (residue I32): 0.024 ppm
CSP (residue I41): 0.011 ppm
CSP (residue I44): 0.005 ppm
CSP (residue I55): 0.003 ppm
CSP (residue I63): 0.00457 ppm
CSP (residue I64): 0.007 ppm
CSP (residue I76): 0.00122 ppm
CSP (residue K2): 0.007 ppm
CSP (residue K6): 0.010 ppm
CSP (residue K20): 0.015 ppm
CSP (residue K24): 0.012 ppm
CSP (residue K35): 0.010 ppm
CSP (residue K46, estimated): 0.005 ppm
CSP (residue K48): 0.050 ppm
CSP (residue K66): 0.004 ppm
CSP (residue K82, estimated): 0.002 ppm
CSP (residue K97): 0.005 ppm
CSP (residue K99): 0.004 ppm
CSP (residue L11): 0.00364 ppm
CSP (residue L50): 0.025 ppm
CSP (residue L94): 0.011 ppm
CSP (residue L105): 0.027 ppm
CSP (residue M1): 0.00659 ppm
CSP (residue M4, estimated): 0.003 ppm
CSP (residue M61): 0.00531 ppm
CSP (residue M91): 0.003 ppm
CSP (residue P26, estimated): 0.020 ppm
CSP (residue P30, estimated): 0.040 ppm
CSP (residue P52, estimated): 0.020 ppm
CSP (residue P71, estimated): 0.002 ppm
CSP (residue P85, estimated): 0.002 ppm
CSP (residue Q40): 0.000721 ppm
CSP (residue Q59): 0.00467 ppm
CSP (residue Q86): 0.003 ppm
CSP (residue R14): 0.018 ppm
CSP (residue R22): 0.020 ppm
CSP (residue R28): 0.016 ppm
CSP (residue R47, estimated): 0.020 ppm
CSP (residue R65): 0.00158 ppm
CSP (residue R67): 0.006 ppm
CSP (residue S10): 0.010 ppm
CSP (residue S18): 0.00255 ppm
CSP (residue S37): 0.048 ppm
CSP (residue S39): 0.003 ppm
CSP (residue S53): 0.014 ppm
CSP (residue S72): 0.00173 ppm
CSP (residue S87): 0.000721 ppm
CSP (residue S88): 0.00152 ppm
CSP (residue S110): 0.00127 ppm
CSP (residue T56): 0.00374 ppm
CSP (residue T90): 0.0011 ppm
CSP (residue V16): 0.014 ppm
CSP (residue V29): 0.043 ppm
CSP (residue V31): 0.038 ppm
CSP (residue V33): 0.013 ppm
CSP (residue V42): 0.00279 ppm
CSP (residue V51): 0.046 ppm
CSP (residue V57): 0.004 ppm
CSP (residue V80): 0.008 ppm
CSP (residue V84): 0.00263 ppm
CSP (residue V107): 0.006 ppm
CSP (residue W62): 0.015 ppm
CSP (residue Y25): 0.034 ppm
CSP (residue Y49): 0.064 ppm
CSP (residue Y106): 0.023 ppm
CSP (residue Y109): 0.009 ppm

O=c1cc(-c2ccccc2)c2c(O)cc(O)cc2o1 [compound 2]
CSP (residue A19): 0.010 ppm
CSP (residue A23): 0.008 ppm
CSP (residue A58): 0.00237 ppm
CSP (residue A108): 0.00221 ppm
CSP (residue C15): 0.005 ppm
CSP (residue D45): 0.004 ppm
CSP (residue D54): 0.006 ppm
CSP (residue D81): 0.00283 ppm
CSP (residue D100): 0.00367 ppm
CSP (residue D102): 0.009 ppm
CSP (residue E12): 0.00212 ppm
CSP (residue E17): 0.006 ppm
CSP (residue E34): 0.010 ppm
CSP (residue E73): 0.00212 ppm
CSP (residue E96): 0.004 ppm
CSP (residue E112): 0.002 ppm
CSP (residue F5, estimated): 0.005 ppm
CSP (residue F60): 0.005 ppm
CSP (residue F77): 0.00281 ppm
CSP (residue F104): 0.016 ppm
CSP (residue F115): 0.009 ppm
CSP (residue G38): 0.012 ppm
CSP (residue G103): 0.005 ppm
CSP (residue G111): 0.008 ppm
CSP (residue H9): 0.016 ppm
CSP (residue I21): 0.005 ppm
CSP (residue I32): 0.005 ppm
CSP (residue I41): 0.007 ppm
CSP (residue I44): 0.002 ppm
CSP (residue I55): 0.00171 ppm
CSP (residue I63): 0.003 ppm
CSP (residue I64): 0.006 ppm
CSP (residue K2): 0.005 ppm
CSP (residue K20): 0.009 ppm
CSP (residue K24): 0.005 ppm
CSP (residue K35): 0.007 ppm
CSP (residue K46, estimated): 0.005 ppm
CSP (residue K48): 0.007 ppm
CSP (residue K66): 0.00316 ppm
CSP (residue K74): 0.00148 ppm
CSP (residue K82, estimated): 0.005 ppm
CSP (residue K99): 0.00444 ppm
CSP (residue L11): 0.00212 ppm
CSP (residue L50): 0.031 ppm
CSP (residue L70): 0.00283 ppm
CSP (residue L78): 0.0017 ppm
CSP (residue L94): 0.007 ppm
CSP (residue L105): 0.00636 ppm
CSP (residue M1): 0.014 ppm
CSP (residue M4, estimated): 0.005 ppm
CSP (residue M61): 0.00474 ppm
CSP (residue M91): 0.005 ppm
CSP (residue P26, estimated): 0.005 ppm
CSP (residue P30, estimated): 0.010 ppm
CSP (residue P52, estimated): 0.005 ppm
CSP (residue P71, estimated): 0.005 ppm
CSP (residue P85, estimated): 0.005 ppm
CSP (residue Q40): 0.0017 ppm
CSP (residue Q59): 0.002 ppm
CSP (residue R14): 0.0095 ppm
CSP (residue R28): 0.00851 ppm
CSP (residue R47, estimated): 0.005 ppm
CSP (residue R65): 0.0019 ppm
CSP (residue R67): 0.004 ppm
CSP (residue S10): 0.013 ppm
CSP (residue S18): 0.002 ppm
CSP (residue S37): 0.0065 ppm
CSP (residue S39): 0.00356 ppm
CSP (residue S53): 0.005 ppm
CSP (residue S88): 0.00122 ppm
CSP (residue S110): 0.00122 ppm
CSP (residue T83): 0.00251 ppm
CSP (residue T114): 0.00122 ppm
CSP (residue V29): 0.0057 ppm
CSP (residue V31): 0.025 ppm
CSP (residue V36): 0.00316 ppm
CSP (residue V42): 0.006 ppm
CSP (residue V51): 0.009 ppm
CSP (residue V80): 0.008 ppm
CSP (residue V84): 0.00228 ppm
CSP (residue V107): 0.006 ppm
CSP (residue W3): 0.006 ppm
CSP (residue Y49): 0.033 ppm
CSP (residue Y95): 0.0022 ppm
CSP (residue Y106): 0.007 ppm
CSP (residue Y109): 0.007 ppm
